In general, IC50 refers to the concentration that inhibits the measured activity by half. Higher therefore signals weaker potency in that assay. Broadly, the Ki is the equilibrium dissociation constant of an inhibitor or competing ligand from its target.

The text below walks through data of US12030892B2, “CRBN modulators” (DANA-FARBER CANCER INSTITUTE, INC., priority 2018, dated 2024).

Experiment [1] has as its system bromodomain proteins BRD2, 3 and 4. The experiment in a line: Change of cellular protein abundance (TMT quantitative proteomics) in Kelly cells. Type of experiment: cell-based, human. Particulars: 1 μM, 6 hours, compared to DMSO control. The method, then:
Kelly cells were treated with DMSO control (biological triplicates) or 1 μM of inventive compound 1 or compound 2 for 6 hours (biological singlicate). Lysis buffer (8 M Urea, 50 mM NaCl, 50 mM 4-(2hydroxyethyl)-1-piperazineethanesulfonic acid (EPPS) pH 8.5, Protease and Phosphatase inhibitors from Roche) was added to the cell pellets and homogenized by 20 passes through a 21 gauge (1.25 in. long) needle to achieve a cell lysate with a protein concentration between 1-4 mg mL^−1. A Micro BCA™ assay (Pierce™) was used to determine the final protein concentration in the cell lysate. 200 μg of protein for each sample were reduced and alkylated as previously described.
Proteins were precipitated using methanol/chloroform/water (4:1:3). In brief, four volumes of methanol were added to the cell lysate, followed by one volume of chloroform, and finally three volumes of water. The mixture was vortexed and centrifuged to separate the chloroform phase from the aqueous phase. The precipitated protein was washed with three volumes of methanol, centrifuged and the resulting washed precipitated protein was allowed to air dry. Precipitated protein was resuspended in 4 M Urea, 50 mM 4-(2-hydroxyethyl)-1-piperazineethanesulfonic acid (HEPES) pH 7.4, followed by dilution to 1 M urea with the addition of 200 mM EPPS, pH 8. Proteins were first digested with LysC (1:50; enzyme:protein) for 12 hours at room temperature. The LysC digestion was diluted to 0.5 M Urea with 200 mM EPPS pH 8 followed by digestion with trypsin (1:50; enzyme:protein) for 6 hours at 37° C. Tandem mass tag (TMT) reagents (Thermo Fisher Scientific) were dissolved in anhydrous acetonitrile (ACN) according to manufacturer's instructions. Anhydrous ACN was added to each peptide sample to a final concentration of 30% v/v, and labeling was induced with the addition of TMT reagent to each sample at a ratio of 1:4 peptide:TMT label. The 10-plex labeling reactions were performed for 1.5 hours at room temperature and the reaction quenched by the addition of hydroxylamine to a final concentration of 0.3% for 15 minutes at room temperature. The sample channels were combined at a 1:1:1:1:1:1:1:1:1:1 ratio, desalted using C18 solid phase extraction cartridges (Waters) and analyzed by LC-MS for channel ratio comparison. Samples were then combined using the adjusted volumes determined in the channel ratio analysis and dried down in a speed vacuum. The combined sample was then resuspended in 1% formic acid, and acidified (pH 2-3) before being subjected to desalting with C18 SPE (Sep-Pak®, Waters). […]

The next experiment concerns BRD2. The experiment in a line: Cellular degradation assay, eGFP-BRD2BD1/BRD2BD2 mCherry reporters in Flip-In 293 cells. Type of experiment: cell-based. The settings on record: BRD2BD1 and BRD2BD2 reporters, 5 h; compound 2 active via BRD2BD2. The protocol:
(§1) IKZF1 (construct IKZF1^Δ1-82/Δ197-238/Δ256-519) BRD2BD1, BRD2BD2, BRD3BD1, BRD3BD2, BRD4BD1, and BRD4BD2 were subcloned into mammalian pcDNA5/FRT Vector (Ampicillin and Hygromycin B resistant) modified to contain MCS-eGFP-P2A-mCherry. Stable cell lines expressing eGFP-protein fusion and mCherry reporter were generated using Flip-In 293 system. Plasmid (0.3 μg) and pOG44 (4.7 μg) DNA were preincubated in 100 μL of Opti-MEM I (Gibco™ Life Technologies™) media containing 0.05 mg/ml Lipofectamine 2000 (Invitrogen™) for 20 min and added to Flip-In 293 cells containing 1.9 ml of DMEM media (Gibco™, Life Technologies™) per well in a 6-well plate format (Falcon®, 353046). […] Titrated compounds were incubated with cells for 5 h following trypsinisation and resuspension in DMEM media, transferred into 96-well plates (353910, Falcon®) and analyzed by flow cytometer (Guava© easyCyte HT, Millipore™) Signal from 5000 cells per well was acquired in singlicate or duplicate and the eGFP and mCherry florescence monitored. Data was analyzed using FlowJo® (FlowJo®, LCC). Forward and side scatter outliers, frequently associated with cell debris, were removed leaving >90% of total cells, followed by removal of eGFP and mCherry signal outliers, leaving 88-90% of total cells creating the set used for quantification. […]

A further experiment deals with BRD4. The experiment in a line: Cellular degradation assay, eGFP-BRD4BD1/BRD4BD2 mCherry reporters in Flip-In 293 cells. Type of experiment: cell-based. The settings on record: BRD4BD1 and BRD4BD2 reporters, 5 h; compound 2 via BD1 and BD2, compound 1 via BD1. The protocol: as §1
For the next experiment, the system named is BRD3. Nature of the experiment: Cellular degradation assay, eGFP-BRD3BD1/BRD3BD2 mCherry reporters in Flip-In 293 cells. Particulars: BRD3BD1 and BRD3BD2 reporters, 5 h; both compounds active via BD1 and BD2. The experiment is classed as cell-based. The protocol:
as §1

Another experiment has as its system MM1.S cells. The experiment in a line: MM1.S cell proliferation. Type of experiment: cell-based. The settings on record: Homo sapiens.
The next experiment deals with IKZF1 (Homo sapiens (Human), UniProt Q13422+Q96SW2, DEL197-238/DEL256-519). The experiment in a line: Cellular degradation assay, eGFP-IKZF1/mCherry reporter in Flip-In 293 cells. Type of experiment: cell-based. The settings on record: 5 h incubation, eGFP/mCherry relative abundance, FIG. 1A-1C. The protocol: Following 2-3 passage cycle FACS (FACSAria™ II, BD) was used to enrich for cells expressing eGFP and mCherry. […] Data was analyzed using FlowJo® (FlowJo®, LCC). […] The eGFP protein abundance relative to mCherry was then quantified as a ten-fold amplified ratio for each individual cell using the formula: 10×eGFP/mCherry. The median of the ratio was then calculated per set, normalized to the median of the DMSO ratio, and is denoted as relative abundance.

Another experiment addresses DDB1ΔB-CRBN (Homo sapiens (Human), UniProt Q96SW2). The experiment in a line: Atto565-Lenalidomide FP displacement assay (CRBN binding). Particulars: for CRBN binding (in words), IC50 comparable to lenalidomide: FP displacement assay, FIG. 3A-3D; for IC50: FP displacement of 10 nM Atto565-Lenalidomide, 100 nM DDB1ΔB-CRBN, n=3; for Ki: FP displacement of Atto565-Lenalidomide. The method, then:
Compounds in Atto565-Lenalidomide displacement assay were dispensed in a 384-well microplate (Corning, 4514) using D300e Digital Dispenser (HP) normalized to 1% DMSO into 10 nM Atto565-Leanlidomide, 100 nM DDB1ΔB-CRBN, 50 mM Tris pH 7.5, 200 mM NaCl, 0.1% Pluronic® F-68 solution (Sigma). Compound titrations were incubated for 60 min at RT. The change in fluorescence polarization was monitored using a PHERAstar® FS microplate reader (BMG Labtech) for 1 h in 120 s cycles. Data from three independent replicates (n=3) was used to estimate IC50 values using variable slope equation in GraphPad Prism 7.

DDB1ΔB-CRBN, sequence (Q96SW2 whole entry, stated change not applied): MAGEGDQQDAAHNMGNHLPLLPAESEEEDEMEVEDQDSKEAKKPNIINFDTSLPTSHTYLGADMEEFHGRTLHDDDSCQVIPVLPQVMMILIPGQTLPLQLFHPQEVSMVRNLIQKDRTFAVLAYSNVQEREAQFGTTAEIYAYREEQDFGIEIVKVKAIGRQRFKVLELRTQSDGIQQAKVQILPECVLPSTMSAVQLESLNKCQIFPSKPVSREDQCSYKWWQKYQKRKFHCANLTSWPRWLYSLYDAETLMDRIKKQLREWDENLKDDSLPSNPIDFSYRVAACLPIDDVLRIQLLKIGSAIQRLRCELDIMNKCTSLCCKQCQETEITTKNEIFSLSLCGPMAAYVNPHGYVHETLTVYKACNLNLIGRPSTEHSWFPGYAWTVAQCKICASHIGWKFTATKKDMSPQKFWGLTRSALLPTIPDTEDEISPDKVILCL

Consider `COC(=O)C[C@@H]1N=C(c2ccc(Cl)cc2)c2c(sc(C(=O)NCCCCCOc3cc4c5c(cccc5c3)C(=O)N(C3CCC(=O)NC3=O)C4=O)c2C)-n2c(C)nnc21` (stereo partly drawn) [Compound 1, methyl 2-((6S)-4-(4-chlorophenyl)-2-((5-((2-(2,6-dioxopiperidin-3-yl)-1,3-dioxo-2,3-dihydro-1H-benzo[de]isoquinolin-5-yl)oxy)pentyl)carbamoyl)-3,9-dimethyl-6H-thieno[3,2-f][1,2,4]triazolo[4,3-a][1,4]diazepin-6-yl)acetate], for which, in experiment [1], the “change in relative abundance of endogenous bromodomain proteins (in words)” value is reported as “downregulation of bromodomain proteins BRD4” and the “degradation of common IMiD-dependent off-targets (in words)” value was “did not induce degradation”. Moreover, in the experiment on BRD2, the “degradation activity against BRD2 (in words)” value was “inactive”. For the same compound, in the experiment with BRD4, the “degradation activity against BRD4 (in words)” value is “active”. The “degradation activity against BRD3 (in words)” value in the experiment with BRD3 is recorded as “active”.
Regarding `Cc1sc2c(c1C)C(c1ccc(Cl)cc1)=N[C@@H](CC(=O)NCCCCCCCCNC(=O)COc1cc3c4c(cccc4c1)C(=O)N(C1CCC(=O)NC1=O)C3=O)c1nnc(C)n1-2` (stereo partly drawn) [Compound 2, 2-((S)-4-(4-chlorophenyl)-2,3,9-trimethyl-6H-thieno[3,2-f][1,2,4]triazolo [4,3-a][1,4]diazepin-6-yl)-N-(8-(2-(2-(2,6-dioxopiperidin-3-yl)-1,3-dioxo-2,3-dihydro-1H-benzo[de]isoquinolin-5-yloxy)acetamido)octyl)acetamide], in experiment [1], the “change in relative abundance of endogenous bromodomain proteins (in words)” value was “downregulation of bromodomain proteins BRD2, 3 and 4”; the “degradation of common IMiD-dependent off-targets (in words)” value is listed as “did not induce degradation”. The “degradation activity against BRD2 (in words)” value in the experiment on BRD2 was “active”. The “degradation activity against BRD4 (in words)” value in the experiment on BRD4 is listed as “active”. In addition, in the experiment with BRD3, the “degradation activity against BRD3 (in words)” value is reported as “active”.
`O=C1CCC(N2C(=O)c3cccc4cccc(c34)C2=O)C(=O)N1` (centres unmarked) [Compound 9, 2-(2,6-dioxopiperidin-3-yl)-1H-benzo[de]isoquinoline-1,3(2H)-dione] displayed an IC50 in the experiment with MM1.S cells of around 21.5 µM. Also, at IKZF1, the “activity against the target IKZF1 (degradation, in words)” value was “inactive”. On DDB1ΔB-CRBN, the “CRBN binding (in words), IC50 comparable to lenalidomide” value is reported as “potent binders of CRBN”; the concentration for half-maximal inhibition (IC50) was 2.6 µM; the Ki came to 0.7 µM.
With `O=C1CCC(N2C(=O)c3cccc4cc(O)cc(c34)C2=O)C(=O)N1` (centres unmarked) [Compound 10, 2-(2,6-dioxopiperidin-3-yl)-5-hydroxy-1H-benzo[de]isoquinoline-1,3(2H)-dione], the “activity against the target IKZF1 (degradation, in words)” value on IKZF1 is “inactive”. In addition, on DDB1ΔB-CRBN, the “CRBN binding (in words), IC50 comparable to lenalidomide” value is “potent binders of CRBN”; the IC50 amounted to 3.5 µM; the Ki is 0.98 µM.
In the same order, the values of `Nc1cc2c3c(cccc3c1)C(=O)N(C1CCC(=O)NC1=O)C2=O` (centres unmarked) [Compound 11, 5-amino-2-(2,6-dioxopiperidin-3-yl)-1H-benzo[de]isoquinoline-1,3(2H)-dione] are “inactive”, “potent binders of CRBN”, 11.4 µM and 3.2 µM.
